Columns and labels:
[1] = molecular target: T1, Solute carrier organic anion transporter family member 1B1 (Homo sapiens, UniProt Q9Y6L6); conditions: chinese hamster, cho, 10 µM
T1 sequence (Q9Y6L6 whole entry): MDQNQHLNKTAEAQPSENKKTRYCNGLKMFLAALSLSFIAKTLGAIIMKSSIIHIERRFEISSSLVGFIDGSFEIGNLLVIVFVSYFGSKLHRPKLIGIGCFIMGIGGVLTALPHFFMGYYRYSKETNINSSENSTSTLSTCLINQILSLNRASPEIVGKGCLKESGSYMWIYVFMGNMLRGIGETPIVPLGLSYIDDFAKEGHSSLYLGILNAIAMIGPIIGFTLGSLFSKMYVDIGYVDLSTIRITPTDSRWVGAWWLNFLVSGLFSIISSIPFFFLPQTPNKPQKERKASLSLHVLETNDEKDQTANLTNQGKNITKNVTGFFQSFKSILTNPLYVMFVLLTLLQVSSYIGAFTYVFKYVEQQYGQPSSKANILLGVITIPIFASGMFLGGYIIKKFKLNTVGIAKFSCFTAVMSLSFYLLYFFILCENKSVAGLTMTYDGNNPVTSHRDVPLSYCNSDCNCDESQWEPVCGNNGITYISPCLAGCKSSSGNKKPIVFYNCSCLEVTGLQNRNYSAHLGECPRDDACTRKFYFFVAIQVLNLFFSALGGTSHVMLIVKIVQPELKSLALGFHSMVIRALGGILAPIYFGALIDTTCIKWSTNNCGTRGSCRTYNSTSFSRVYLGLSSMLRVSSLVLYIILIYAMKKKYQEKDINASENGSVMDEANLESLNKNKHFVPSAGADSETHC

[2] = molecular target: T2, Solute carrier organic anion transporter family member 1B3 (Homo sapiens, UniProt Q9NPD5); conditions: chinese hamster, cho, 10 µM
T2 sequence (Q9NPD5 whole entry): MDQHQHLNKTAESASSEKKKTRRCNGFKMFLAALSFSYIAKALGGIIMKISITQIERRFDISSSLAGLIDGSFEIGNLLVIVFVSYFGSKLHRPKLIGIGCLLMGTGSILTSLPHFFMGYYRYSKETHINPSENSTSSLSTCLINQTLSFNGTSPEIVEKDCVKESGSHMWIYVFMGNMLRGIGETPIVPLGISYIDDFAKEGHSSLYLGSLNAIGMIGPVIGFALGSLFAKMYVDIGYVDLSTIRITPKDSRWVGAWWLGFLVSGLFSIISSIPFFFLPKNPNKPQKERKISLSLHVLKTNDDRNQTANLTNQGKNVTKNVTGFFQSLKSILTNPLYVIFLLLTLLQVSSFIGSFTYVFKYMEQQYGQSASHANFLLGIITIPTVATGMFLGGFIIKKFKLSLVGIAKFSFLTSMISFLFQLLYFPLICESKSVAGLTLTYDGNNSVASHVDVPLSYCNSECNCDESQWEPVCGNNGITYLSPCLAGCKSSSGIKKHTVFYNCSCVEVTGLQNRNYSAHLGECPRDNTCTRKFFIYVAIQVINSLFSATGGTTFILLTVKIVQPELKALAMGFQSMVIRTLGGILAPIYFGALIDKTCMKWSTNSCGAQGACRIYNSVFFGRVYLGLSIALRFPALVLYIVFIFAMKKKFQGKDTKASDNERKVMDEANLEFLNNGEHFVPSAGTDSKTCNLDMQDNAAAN

| SMILES | residual activity [1] | residual activity [2] |
| --- | --- | --- |
| Oc1c(Cl)cc(Cl)c(Cl)c1Cc1c(O)c(Cl)cc(Cl)c1Cl [HEXACHLOROPHENE] | 7.55% | 3.11% |
| C[N+](C)(C)CCCCCC[N+](C)(C)C.[Br-].[Br-] [HEXAMETHONIUM BROMIDE] | 76.07% | 77.59% |
| C[N+]1(C)[C@@H]2CC[C@H]1C[C@@H](OC(=O)C(O)c1ccccc1)C2.[Br-] (stereo partly specified) [HOMATROPINE METHYLBROMIDE] | 77.55% | 73.94% |
| CC[n+]1c(-c2ccccc2)c2cc(N)ccc2c2ccc(N)cc21.[Br-] [HOMIDIUM BROMIDE] | 98.94% | 100.7% |
| Cl.NNc1nncc2ccccc12 [HYDRALAZINE HYDROCHLORIDE] | 87.74% | 115.1% |
| CN1CCc2cc3c(cc2C1O)OCO3.Cl (stereo unspecified) [HYDRASTININE HYDROCHLORIDE] | 62.32% | 73.39% |
| NS(=O)(=O)c1cc2c(cc1Cl)NCNS2(=O)=O [HYDROCHLOROTHIAZIDE] | 68.94% | 82.24% |
| Br.COc1c2c(cc3c1OCO3)CCN(C)C2 [HYDROCOTARNINE HYDROBROMIDE] | 99.81% | 89.75% |
| COc1c2c(cc3c1OCO3)CCN(C)C2 [HYDROCOTARNINE] | 77.76% | 98.91% |
| NS(=O)(=O)c1cc2c(cc1C(F)(F)F)NCNS2(=O)=O [HYDROFLUMETHIAZIDE] | 82.22% | 85.97% |
| CC[C@H]1CN2CC[C@H]1C[C@@H]2[C@@H](O)c1ccnc2ccc(OC)cc12 [HYDROQUINIDINE] | 77.48% | 96.11% |
| Oc1ccc(O)cc1 [HYDROQUINONE] | 112.9% | 93.82% |

More lines, now with the values ahead:

| residual activity [1] | residual activity [2] | SMILES |
| --- | --- | --- |
| 46.62% | 43.21% | CC[C@H](c1ccc(O)cc1)[C@@H](CC)c1ccc(O)cc1 [HEXESTROL] |
| 75.93% | 102.1% | CCCCC(CC)CN1CN(CC(CC)CCCC)CC(C)(N)C1 (stereo unspecified) [HEXETIDINE] |
| 115.5% | 84.11% | CCCCCCc1ccc(O)cc1O [HEXYLRESORCINOL] |
| 22.34% | 34.35% | COC(=O)C[C@H]1C(C)(C)C(OC(C)=O)[C@]2(O)C=C3C4CC(=O)O[C@@H](c5ccoc5)[C@]4(C)CCC3[C@@]1(C)C2=O (stereo partly specified) [HUMILIN A] |
| 93.86% | 101.3% | C/C=C1\[C@H]2C=C(C)C[C@]1(N)c1ccc(=O)[nH]c1C2 [HUPERZINE A] |
| 79.76% | 100.5% | CCN(CC)CCNc1ccc(CO)c2sc3ccccc3c(=O)c12 [HYCANTHONE] |
| 93.94% | 91.1% | CC(=O)OCC(=O)[C@@]1(O)CC[C@H]2[C@@H]3CCC4=CC(=O)CC[C@]4(C)[C@H]3[C@@H](O)C[C@@]21C [HYDROCORTISONE ACETATE] |
| 100.3% | 98.06% | CCCC(=O)O[C@]1(C(=O)CO)CC[C@H]2[C@@H]3CCC4=CC(=O)CC[C@]4(C)[C@H]3[C@@H](O)C[C@@]21C [HYDROCORTISONE BUTYRATE] |
| 93.98% | 101.8% | C[C@]12CCC(=O)C=C1CC[C@@H]1[C@@H]2[C@@H](O)C[C@@]2(C)[C@H]1CC[C@]2(O)C(=O)COC(=O)CCC(=O)O [HYDROCORTISONE HEMISUCCINATE ANHYDROUS] |
| 98.24% | 113.8% | C[C@]12CCC(=O)C=C1CC[C@@H]1[C@@H]2[C@@H](O)C[C@@]2(C)[C@H]1CC[C@]2(O)C(=O)CO [HYDROCORTISONE] |
| 52.29% | 78.08% | CC(C)/C(O)=C1/C(=O)O[C@@H](c2ccoc2)[C@]2(C)C(O)[C@@H](O)[C@@]34OC5(C)OC67CC(C)(C(O)[C@]6(O)[C@@H](O)[C@]3(O5)C12)[C@H](CC(=O)O)[C@]74C (stereo partly specified) [HYDROLYSIS PRODUCT OF BUSSEIN] |

Reference: ChEMBL document CHEMBL3039007, “Structure-based identification of OATP1B1/3 inhibitors” (Mol Pharmacol, 2013)
